Measurements taken from patent US20260374739A1, “SMALL MOLECULAR WEIGHT CHEMICAL COMPOUND TO ANTAGONIZE EPH-EPHRIN TETRAMERIZATION AND INHIBIT BIDIRECTIONAL SIGNALING” (THE BOARD OF REGENTS OF THE UNIVERSITY OF TEXAS SYSTEM, priority 2022, published 2026).
Values joined by “and” are separate entries in the source; they are usually repeats but may differ in a detail not shown here. Equal values may be shown once.

How the values were obtained:
[1] = target: T1, EphrinB2-EphB4 (Homo sapiens, UniProt P54760); assay: Octet 80 sec association/500 sec dissociation, immobilized human EphrinB2-Fc binding to soluble human EphB4-His; conditions: immobilized human EphrinB2, 25 nM soluble human EphB4; for EphB4 Inhibition Percent, Inhibition of Association ONLY: at 3.2 μM and 80 seconds; for EphB4 Inhibition Percent, Inhibition of Association-Dissociation: at 3.2 μM and 580 seconds
T1 construct: soluble human EphB1-His, EphB2-His, and EphB4-His ectodomains; commercially available human EphrinB1-Fc (EB1), EphrinB2-Fc (EB2), and EphrinB3-Fc (EB3) ectodomain proteins; purchased
T1 sequence (P54760 16-539 limits assumed): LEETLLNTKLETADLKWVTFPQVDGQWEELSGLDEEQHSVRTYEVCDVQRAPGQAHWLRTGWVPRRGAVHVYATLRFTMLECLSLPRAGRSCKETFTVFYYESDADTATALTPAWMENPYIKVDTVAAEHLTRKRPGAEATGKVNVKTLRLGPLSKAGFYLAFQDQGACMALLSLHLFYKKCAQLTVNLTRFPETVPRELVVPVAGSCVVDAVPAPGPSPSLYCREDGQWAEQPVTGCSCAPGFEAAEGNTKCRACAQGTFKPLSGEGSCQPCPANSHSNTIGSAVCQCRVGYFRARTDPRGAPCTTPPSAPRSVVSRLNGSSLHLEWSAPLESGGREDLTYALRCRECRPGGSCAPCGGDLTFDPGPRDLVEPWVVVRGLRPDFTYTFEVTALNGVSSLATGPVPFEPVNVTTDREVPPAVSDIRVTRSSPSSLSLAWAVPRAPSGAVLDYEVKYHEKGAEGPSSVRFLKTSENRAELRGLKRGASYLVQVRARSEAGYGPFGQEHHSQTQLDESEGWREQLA
Experimental: (§1) In another experiment, whether certain A20 analogs might have specificity for different Eph receptors was tested. An Octet RED384 system was used to obtain biophysical ON-OFF binding data (association-dissociation) for the three different human EphrinB2-EphB1, EphrinB2-EphB2, and EphrinB2-EphB4 protein-protein interactions and to assess the effect of A20 chemicals on the binding kinetics.
(§2) FIGS. 72A-72C show three example Octet sensorgram response traces for the immobilized human EphrinB2 ectodomain protein binding to soluble forms of the human EphB1, EphB2, and EphB4 ectodomain proteins, in the absence or presence of an A20 chemical (buffer conditions are always PBSTD:PBS with 0.05% Tween-20, 1% DMSO, and +/− indicated chemical). After loading EphrinB2-Fc protein to Octet AHC biosensors, washing, and obtaining stable baseline measurements in the appropriate PBSTD (either with or without indicated chemical), the sensors are placed in its buffer that also contains the indicated soluble EphB protein for the association step (0-80″), and then returned to its buffer for the dissociation step (81″-580″). In each figure (FIGS. 72A-72C), a sensorgram run using 10 μM of the 2×HCl salt form of A20-I is compared to the no compound control run to exemplify the maximum level of reduced response signal typically obtained with a potent A20 chemical.
(§3) Because the response levels during the dissociation step plateau for the EphrinB2-EphB2 and EphrinB2-EphB1 interactions by the first 80″, AUCs were also calculated for run data encompassing the first 160″ of each experiment to account for both the 80″ association data (red asterisks) and the first 80″ of dissociation data (marked by green line and asterisks).
(§4) The selectivity of another A20 analog (a 3×HCL salt form of compound BQPB4) in comparison to previously tested compound, A20-1, was tested as described in Example 27 above.
(§5) Further to the experiments listed above, a series of dose-response experiments were conducted to determine the IC50 of a selected A20 chemical (A20-1) on the kinetics of human EphrinB2 ligand ectodomain protein binding to its cognate human EphB1, EphB2, and EphB4 receptor ectodomain proteins. FIG. 74A-74C are representative sensorgrams showing the effect of 0, 0.1, 0.2, 0.4, 0.8, 1.6, and 3.2 μM, concentrations of the 2×HCl salt of A20-I along with a 10 μM max standard (also A20-1) on three different Ephrin-EphB interactions (e.g., EphB1 in FIG. 74A, EphB2 in FIG. 74B and EphB4 in FIG. 74C). […] Additional IC50 values were determined at specific timepoints, at 75″ into the association step and at 55″ into the dissociation step (135″).
(§6) All absolute and relative IC50 values are provided in the Table 6 below, where absolute are based off the full binding sensorgram traces, and relative are based off of the max control traces.
(§7) In another experiment, the % inhibition for various A20 analog chemicals against the three different EphrinB2-EphB protein interactions was determined. Specifically, the percent inhibition for immobilized human EphrinB2-Fc binding to 25 nM soluble human EphB1-His (FIG. 76A, enlarged in FIG. 76D), EphB2-His (FIG. 76B, enlarged in FIG. 76E), and EphB4-His (FIG. 76C, enlarged in FIG. 76F) with 3511-I, 8009-9255, QTM-Br, A19, A19-NO2, and IM (all at 3.2 μM) was determined.

[2] = target: T2, EphrinB2-EphB2 (Homo sapiens, UniProt P29323); assay: Octet tetramerization inhibition, immobilized human EphrinB2 binding to 50 nM soluble human EphB2; conditions: for IC50: EphrinB2-EphB2
T2 construct: soluble human EphB1-His, EphB2-His, and EphB4-His ectodomains; commercially available human EphrinB1-Fc (EB1), EphrinB2-Fc (EB2), and EphrinB3-Fc (EB3) ectodomain proteins; purchased
T2 sequence (P29323 19-543 limits assumed): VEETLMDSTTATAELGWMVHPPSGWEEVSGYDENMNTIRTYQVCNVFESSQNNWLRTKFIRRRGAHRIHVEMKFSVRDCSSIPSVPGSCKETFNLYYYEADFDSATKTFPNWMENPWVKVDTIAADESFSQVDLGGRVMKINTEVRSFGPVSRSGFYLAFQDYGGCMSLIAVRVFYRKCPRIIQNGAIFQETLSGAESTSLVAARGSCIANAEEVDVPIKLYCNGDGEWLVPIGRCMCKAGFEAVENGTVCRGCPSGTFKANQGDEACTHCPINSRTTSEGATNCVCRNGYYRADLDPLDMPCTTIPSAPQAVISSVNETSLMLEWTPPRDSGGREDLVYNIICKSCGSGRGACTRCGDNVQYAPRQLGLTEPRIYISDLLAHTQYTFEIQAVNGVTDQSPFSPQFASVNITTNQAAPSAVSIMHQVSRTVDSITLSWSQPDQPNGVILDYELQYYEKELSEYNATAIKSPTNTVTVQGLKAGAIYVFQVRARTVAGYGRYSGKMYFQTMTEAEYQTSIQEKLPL

[3] = target: T2, EphrinB2-EphB2; assay: Octet 80 sec association/500 sec dissociation, immobilized human EphrinB2-Fc binding to soluble human EphB2-His; conditions: immobilized human EphrinB2, 25 nM soluble human EphB2; for EphB2 Inhibition Percent, Inhibition of Association ONLY: at 3.2 μM and 80 seconds; for EphB2 Inhibition Percent, Inhibition of Association-Dissociation: at 3.2 μM and 580 seconds
Experimental: as §1, §2, §3, §4, §5, §6, §7

[4] = target: T3, EphrinB2-EphB1 (Homo sapiens, UniProt P54762); assay: Octet 80 sec association/500 sec dissociation, immobilized human EphrinB2-Fc binding to soluble human EphB1-His; conditions: immobilized human EphrinB2, 25 nM soluble human EphB1; for EphB1 Inhibition Percent, Inhibition of Association ONLY: at 3.2 μM and 80 seconds; for EphB1 Inhibition Percent, Inhibition of Association-Dissociation: at 3.2 μM and 580 seconds
T3 construct: soluble human EphB1-His, EphB2-His, and EphB4-His ectodomains; commercially available human EphrinB1-Fc (EB1), EphrinB2-Fc (EB2), and EphrinB3-Fc (EB3) ectodomain proteins; purchased
T3 sequence (P54762 18-540 limits assumed): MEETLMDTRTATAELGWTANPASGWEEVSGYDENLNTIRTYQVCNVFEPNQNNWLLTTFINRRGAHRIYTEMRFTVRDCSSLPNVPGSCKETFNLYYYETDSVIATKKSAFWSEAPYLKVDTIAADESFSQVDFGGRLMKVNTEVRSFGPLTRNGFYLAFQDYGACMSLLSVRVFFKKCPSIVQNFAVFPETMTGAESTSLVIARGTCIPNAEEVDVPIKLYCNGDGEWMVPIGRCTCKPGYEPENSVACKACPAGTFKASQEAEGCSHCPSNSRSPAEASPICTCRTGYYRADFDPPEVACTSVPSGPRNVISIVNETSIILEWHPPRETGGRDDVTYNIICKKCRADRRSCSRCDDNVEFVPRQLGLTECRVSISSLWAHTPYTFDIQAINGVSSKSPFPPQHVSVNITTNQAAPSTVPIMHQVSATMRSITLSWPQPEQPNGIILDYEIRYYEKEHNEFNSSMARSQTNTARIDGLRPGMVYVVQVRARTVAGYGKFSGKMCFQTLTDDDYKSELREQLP
Experimental: as §1, §2, §3, §4, §5, §6, §7

[5] = Absolute Association IC50 (300 sec), Table A
[6] = Absolute Dissociation IC50 (450 sec), Table A
[7] = Relative AUC/IC50, Table A, compound 7: association only
[8] = Relative Association IC50 (300 sec), Table A

SMILES	EphB4 Inhibition Percent, Inhibition of Association ONLY [1]	IC50 ([2]; Absolute AUC/IC50, Table A)	IC50 [2, 5] [nM]	IC50 [2, 6] [nM]	IC50 [2, 7]	IC50 [2, 8] [nM]	IC50 ([2]; Relative Dissociation IC50 (450 sec), Table A)	EphB2 Inhibition Percent, Inhibition of Association ONLY [3]	EphB2 Inhibition Percent, Inhibition of Association-Dissociation [3]	EphB1 Inhibition Percent, Inhibition of Association ONLY [4]	EphB1 Inhibition Percent, Inhibition of Association-Dissociation [4]	EphB4 Inhibition Percent, Inhibition of Association-Dissociation [1] [%]	tetramerization inhibitor activity [2]
O=[N+]([O-])c1cc(CN2CCS(=O)(=O)CC2)c2cccnc2c1O [Compound 21, 4-((8-hydroxy-7-nitroquinolin-1-ium-5-yl)methyl)thiomorpholin-4-ium 1,1-dioxide chloride]	0% and 4.3%	1150 nM and 1950 nM	1740	1700	~1000 nM and 890 nM	910	1070 nM and 1000 nM	36.7% and 57.0%	51.7% and 69.2%	24.0% and 23.8%	36.0% and 28.9%	–	–
Oc1ccc(CN2CCN(c3ccc(Br)cn3)CC2)c2cccnc12 [Compound 34, 5-((4-(5-bromopyridin-2-yl)piperazin-1-ium-1-yl)methyl)-8-hydroxyquinolin-1-ium chloride]	20.9%	–	2820	2630	1700 nM	2090	–	69.4%	81.6%	46.4%	58.6%	36.9	–
COc1ccc(N2CCN(Cc3cc(I)c(O)c4ncccc34)CC2)cc1 [Compound 74, 7-iodo-5-((4-(4-methoxyphenyl)piperazin-1-yl)methyl)quinolin-8-ol]	21.0%	400 nM	560	420	–	–	–	50.6%	70.0%	47.2%	58.2%	43.4	exhibit strong IC50 values
